Assay [1] has as its system E. coli ATCC 25922. Put plainly: Post-antibiotic effect (PAE), growth kinetics after washout. It counts as cell-based, Escherichia coli. To be noted: 30 min treatment at MIC. Here is the method:
An overnight culture of E. coli ATCC 25922, prepared as described above, was diluted to a final concentration of 5 × 10^6 CFU/mL and then incubated at 37 °C for 30 min in the presence or absence of each peptide or antibiotic at various concentrations, with a final volume of 1 mL. To measure the post-antibiotic effect (PAE) of antimicrobials, the compounds were removed from the supernatant by centrifugation (16,000 × g for 5 min) and bacteria were washed and resuspended in 1 mL of fresh supplemented MHB medium, to promote faster growth visible as increased absorbance. 200 μL of each sample was then transferred to a 96-well round-bottom microplate (Sarstedt, Milan, Italy), which was then placed in a Nanoquant Infinite-M200Pro plate reader with stable temperature at 37 °C. Each sample was surrounded by water-filled wells to reduce its own evaporation. Optical density at 600 nm was then recorded for each sample every hour for up to 18 h. PAE was calculated according to [Holfeld et al. (2018)] as the difference between the time needed for a cell culture incubated with an antibiotic substance to reach half-maximum absorbance of the control culture and the time that the control culture needed to reach half-maximum absorbance of the stationary phase. According to this definition, the PAE of each compound (expressed as time) was calculated based on the OD₆₀₀ value of its respective replicate, which corresponded to half of the maximum absorbance reached by the control culture in the stationary phase (at 18 h). The mean PAE values (PAE in hours) of each compound, were obtained by averaging the times from the three independent experiments.

The test system of assay [2] is E. coli ATCC 25922. In words: BONCAT protein synthesis inhibition after antimicrobial washout. The format is cell-based, Escherichia coli. To be noted: 10 or 30 min at MIC (time not given), then 30 min HPG. The procedure:
We used a modified protocol from [Lindivat et al. (2020)]. Briefly, overnight cultures of E. coli ATCC 25922 or K. pneumoniae ATCC 700603, prepared as described above, were diluted to a final concentration of 5×10^6 CFU/mL and allowed to adjust for 30 min at 37 °C. The culture was then incubated at 37 °C in the dark for 10 or 30 min in the presence or absence of each peptide or antibiotic at various concentrations, with a final volume of 1 mL. At this point, only in certain specified experimental assays, the compounds were removed from the supernatant by centrifugation (16,000 × g for 5 min) and bacteria were washed and resuspended in fresh supplemented M9 medium. […] If not analysed immediately, the fixed samples were stored at 4 °C prior to performing the click chemistry reaction. […]
An overnight culture of E. coli ATCC 25922, or of K. pneumoniae ATCC 700603, prepared as described above, was diluted to a final concentration of 5 × 10^6 CFU/mL and allowed to adjust for 30 min at 37 °C under shaking. Membrane permeabilization of bacteria was then assessed by incubating bacteria at 37 °C, in a final volume of 1 mL, with varying concentrations of each peptide or antibiotic used for the BONCAT assay. […] The fluorescence of untreated cells was used to establish the gating for positive PI-stained cells. […]

Setting [3] is: OD600 every hour for 18 h in MHB, mean ± SD, n = 3.

No end group written: not given here.

In the case of `O=C(N[C@H](CO)[C@H](O)c1ccc([N+](=O)[O-])cc1)C(Cl)Cl` [CHL, Chloramphenicol], the “PAE” value is “about half an hour” in the assay with E. coli ATCC 25922 [1] and 0.6 ± 1.2 h in the assay with E. coli ATCC 25922 [1] (setting [3]). Besides, the “Reduction in fluorescence after washout” value with E. coli ATCC 25922 [2] is on record as “lost most of its inhibitory effects once removed from the medium”.
In the assay on E. coli ATCC 25922 [1] (setting [3]), `CO[C@H]1/C=C/O[C@@]2(C)Oc3c(C)c(O)c4c(O)c(c(/C=N/N5CCN(C)CC5)c(O)c4c3C2=O)NC(=O)/C(C)=C\C=C\[C@H](C)[C@H](O)[C@@H](C)[C@@H](O)[C@@H](C)[C@H](OC(C)=O)[C@@H]1C` [RIF, Rifampicin] gave a PAE of 1.6 ± 1.1 h. The “Reduction in fluorescence after washout” value in the assay on E. coli ATCC 25922 [2] is recorded as “over 20%”.
As to RRIRPRPPRLPRPRPR [Bac7(1–16)], the PAE in the assay on E. coli ATCC 25922 [1] (setting [3]) is 1.7 ± 0.9 h.
As for “RRIRPRPPRLPRPRPRPLPFPRPGPRPIPRPLPFP [Bac7(1–35)]”, the “PAE” value in the assay on E. coli ATCC 25922 [1] was determined as 3 h; with E. coli ATCC 25922 [1] (setting [3]), 2.9 ± 0.5 h.

The values above are taken from publication PMC12748266, “Testing antimicrobial peptides inhibiting protein synthesis in living E. coli and K. pneumoniae using bio-orthogonal non-canonical amino-acid tagging” (Frontiers in Microbiology, 2025).
